Test results taken from patent US11707440B2 (priority 2017, dated 2023).
Read-outs that look alike come from different tables or passages of the source.

What was measured:
[1] = test system: subjects with MDD at imminent risk for suicide; test: MADRS total score, study […]2001; format: in vivo, human; settings: ITT analysis set; for MADRS total score change, Diff. of LS Means (SE) minus placebo: ANCOVA LOCF
Excerpt: Primary efficacy variable/Primary Time point: Change from baseline (Day 1, predose) to Day 1, 4-hours postdose in MADRS total score. The MADRS consists of 10 items that cover all of the core depressive symptoms, with each item scoring from 0 (item is not present or is normal) to 6 (severe or continuous presence of the symptom). A higher score represents a more severe condition.
The primary efficacy endpoint is the change in MADRS total score from baseline to Day 1: 4-hours postdose. MADRS total scores range from 0 to 60. […] As this is a phase 2a proof-of-concept study, statistical significance is based on a two-sided alpha level of 0.20. All p-values presented in this document are two-sided.

[2] = test system: subjects with MDD at imminent risk for suicide; test: Sustained response, response and remission based on MADRS, […]2001; format: in vivo, human; settings: at least 50 percent reduction from baseline with onset on Day 1 maintained through Day 25; ITT analysis set
Excerpt: • a. Changes from baseline to Day 2 and Day 25 for the MADRS total score • b. Changes from baseline to Day 1 4-hours postdose, Day 2 and Day 25 for the MADRS Suicide Item • c. Changes from baseline to Day 1 4-hours postdose, Day 2, and Day 25 for the clinical global judgment of suicide risk from the Suicide Ideation and Behavior Assessment Tool (SIBAT) • d. Sustained response (Onset of Clinical Response) defined as at least 50% reduction from baseline in MADRS total score with onset on Day 1 that is maintained through the end of the double-blind phase (Day 25) • e. Changes from baseline to Day 1 4-hours postdose, Day 2, and Day 25 for the Beck Scale for Suicidal Ideation (BSS) • f. Changes from baseline to Day 1 4-hours postdose and Day 25 for the Beck Hopelessness Scale
Sustained response is defined as at least 50% reduction from baseline in MADRS total score with onset on Day 1: 4 hours postdose that is maintained through the end of the double-blind phase (Day 25). Four subjects in the esketamine 84 mg group and 2 subjects in the placebo group had sustained response throughout the double-blind phase.

[3] = test system: subjects with MDD at imminent risk for suicide; test: Beck Scale for Suicidal Ideation (BSS), […]2001; format: in vivo, human; settings: for BSS total score change, Diff. of LS Means (SE) minus placebo: ANCOVA LOCF
Procedure: The BSS is a 21-item self-reported instrument to detect and measure the severity of suicidal ideation in adults and adolescents aged 17 years and older. The BSS total score represents the severity of suicide ideation, and it is calculated by summing the ratings of the first 19 items; the total score ranges from 0 to 38, with a higher score representing greater suicide ideation. Increasing scores reflect increases in suicidal risk.

[4] = test system: subjects with MDD at imminent risk for suicide; settings: double-blind phase, safety analysis set
[5] = Baseline(DB), predose Day 1, ITT analysis set
[6] = Day 1(DB): 4H, LOCF, ITT analysis set
[7] = Day 2(DB), LOCF, ITT analysis set
[8] = End Point(DB), LOCF, ITT analysis set
[9] = TEAE in ≥5% of subjects in any treatment group
[10] = TEAE leading to study discontinuation

CN[C@]1(c2ccccc2Cl)CCCCC1=O [Esketamine 84 mg]
MADRS total score, Mean (SD) ([1]; Baseline(DB), predose Day 1): 38.5 (6.17)
MADRS total score, Median (Range) ([1]; Baseline(DB), predose Day 1): 38.0 (27; 49)
MADRS total score change, Diff. of LS Means (SE) minus placebo ([1]; Day 1(DB): 4H): −5.3 (2.10)
MADRS total score change from baseline, Mean (SD) ([1]; Day 1(DB): 4H, LOCF): −13.4 (9.03)
MADRS total score change from baseline, Median (Range) ([1]; Day 1(DB): 4H, LOCF): −14.0 (−32; 1)
MADRS total score, Median (Range) ([1]; Day 1(DB): 4H, LOCF): 23.0 (7; 48)
MADRS total score change, Diff. of LS Means (SE) minus placebo ([1]; Day 2(DB)): −7.2 (2.85)
MADRS total score change from baseline, Mean (SD) ([1]; Day 2(DB), LOCF): −19.3 (12.02)
MADRS total score change from baseline, Median (Range) ([1]; Day 2(DB), LOCF): −19.0 (−41; 1)
MADRS total score, Median (Range) ([1]; Day 2(DB), LOCF): 18.0 (3; 42)
MADRS total score change, Diff. of LS Means (SE) minus placebo ([1]; End Point(DB)): −4.5 (3.14)
MADRS total score change from baseline, Mean (SD) ([1]; End Point(DB), LOCF): −26.4 (14.52)
MADRS total score change from baseline, Median (Range) ([1]; End Point(DB), LOCF): −25.0 (−46; 13)
MADRS total score, Median (Range) ([1]; End Point(DB), LOCF): 8.0 (0; 44)
Day 25 sustained response based on MADRS total score: No [2]: 30 (88.2%) subjects (%)
Day 25 sustained response based on MADRS total score: Yes [2]: 4 (118%) subjects (%)
BSS total score, Mean (SD) [3, 5]: 24.0 (5.45)
BSS total score, Median (Range) [3, 5]: 25.0 (8; 33)
BSS total score change, Diff. of LS Means (SE) minus placebo ([3]; Day 1(DB): 4H): −2.3 (2.29)
BSS total score change from baseline, Mean (SD) [3, 6]: −10.2 (9.74)
BSS total score change from baseline, Median (Range) [3, 6]: −8.0 (−33; 8)
BSS total score, Median (Range) [3, 6]: 16.5 (0; 31)
BSS total score change, Diff. of LS Means (SE) minus placebo ([3]; Day 2(DB)): −1.9 (2.30)
BSS total score, Mean (SD) [3, 7]: 11.1 (10.12)
BSS total score, Median (Range) [3, 7]: 13.0 (0; 34)
BSS total score change, Diff. of LS Means (SE) minus placebo ([3]; End Point(DB)): −1.7 (2.15)
BSS total score change from baseline, Median (Range) [3, 8]: −21.0 (−33; 8)
BSS total score, Mean (SD) [3, 8]: 4.7 (9.03)
BSS total score, Median (Range) [3, 8]: 0.0 (0; 34)
Abdominal pain [4, 9]: 0 no. subjects (%)
Acne [4, 9]: 2 (5.7%) no. subjects (%)
Agitation [4, 9]: 3 (8.6%) no. subjects (%)
Anxiety [4, 9]: 6 (17.1%) no. subjects (%)
Blepharospasm [4, 9]: 0 no. subjects (%)
Blood pressure increased [4, 9]: 2 (5.7%) no. subjects (%)
Constipation [4, 9]: 0 no. subjects (%)
Diarrhea [4, 9]: 3 (8.6%) no. subjects (%)
Diplopia [4, 9]: 2 (5.7%) no. subjects (%)
Dissociation [4, 9]: 11 (31.4%) no. subjects (%)
Dizziness [4, 9]: 12 (34.3%) no. subjects (%)
Dizziness postural [4, 9]: 2 (5.7%) no. subjects (%)
Dry mouth [4, 9]: 3 (8.6%) no. subjects (%)
Dysgeusia [4, 9]: 11 (31.4%) no. subjects (%)
Ear and labyrinth disorders [4, 9]: 9 (25.7%) no. subjects (%)
Epistaxis [4, 9]: 0 no. subjects (%)
Euphoric mood [4, 9]: 4 (11.4%) no. subjects (%)
Eye disorders [4, 9]: 7 (20.0%) no. subjects (%)
Fatigue [4, 9]: 2 (5.7%) no. subjects (%)
Feeling abnormal [4, 9]: 3 (8.6%) no. subjects (%)
Feeling cold [4, 9]: 2 (5.7%) no. subjects (%)
Flatulence [4, 9]: 1 (2.9%) no. subjects (%)
Gastrointestinal disorders [4, 9]: 19 (54.3%) no. subjects (%)
General disorders and administration site conditions [4, 9]: 10 (28.6%) no. subjects (%)
Headache [4, 9]: 11 (31.4%) no. subjects (%)
Hyperacusis [4, 9]: 2 (5.7%) no. subjects (%)
Hyperhidrosis [4, 9]: 2 (5.7%) no. subjects (%)
Hypoesthesia [4, 9]: 3 (8.6%) no. subjects (%)
Hypoesthesia oral [4, 9]: 2 (5.7%) no. subjects (%)
Infections and infestations [4, 9]: 1 (2.9%) no. subjects (%)
Insomnia [4, 9]: 3 (8.6%) no. subjects (%)
Intranasal paranesthesia [4, 9]: 0 no. subjects (%)
Investigations [4, 9]: 5 (14.3%) no. subjects (%)
Nasal congestion [4, 9]: 1 (2.9%) no. subjects (%)
Nasal discomfort [4, 9]: 3 (8.6%) no. subjects (%)
Nausea [4, 9]: 13 (37.1%) no. subjects (%)
Nervous system disorders [4, 9]: 25 (71.4%) no. subjects (%)
Oropharyngeal pain [4, 9]: 2 (5.7%) no. subjects (%)
Panic attack [4, 9]: 0 no. subjects (%)
Paresthesia [4, 9]: 6 (17.1%) no. subjects (%)
Paresthesia oral [4, 9]: 2 (5.7%) no. subjects (%)
Pharyngeal hypoesthesia [4, 9]: 2 (5.7%) no. subjects (%)
Pollakiuria [4, 9]: 0 no. subjects (%)
Psychiatric disorders [4, 9]: 20 (57.1%) no. subjects (%)
Rash [4, 9]: 1 (2.9%) no. subjects (%)
Renal and urinary disorders [4, 9]: 1 (2.9%) no. subjects (%)
Respiratory, thoracic and mediastinal disorders [4, 9]: 9 (25.7%) no. subjects (%)
Rhinalgia [4, 9]: 0 no. subjects (%)
Rhinorrhoea [4, 9]: 0 no. subjects (%)
Sedation [4, 9]: 6 (17.1%) no. subjects (%)
Skin and subcutaneous tissue disorders [4, 9]: 5 (14.3%) no. subjects (%)
Somnolence [4, 9]: 4 (11.4%) no. subjects (%)
Suicidal ideation [4, 9]: 2 (5.7%) no. subjects (%)
Throat irritation [4, 9]: 3 (8.6%) no. subjects (%)
Tinnitus [4, 9]: 2 (5.7%) no. subjects (%)
Toothache [4, 9]: 0 no. subjects (%)
Upper respiratory tract infection [4, 9]: 0 no. subjects (%)
Vertigo [4, 9]: 4 (11.4%) no. subjects (%)
Vision blurred [4, 9]: 3 (8.6%) no. subjects (%)
Vomiting [4, 9]: 7 (20.0%) no. subjects (%)
Weight increased [4, 9]: 2 (5.7%) no. subjects (%)
Aggression [4, 10]: 1 (2.9%) no. subjects (%)
Agitation [4, 10]: 1 (2.9%) no. subjects (%)
Cardiac disorders [4, 10]: 1 (2.9%) no. subjects (%)
Dissociative disorder [4, 10]: 0 no. subjects (%)
